# Assay results taken from article PMC11874750, “Inhibitory effect of fermented avocado seed extract (Persea americana Mill. cv. Hass) on polyphenol oxidase and its application as anti-browning agent in avocado, apple, and banana pulps” (Heliyon, 2025).
# Tested on: T1, polyphenol oxidase (PPO), crude PPO extract of Hass avocado pulp
# T1 construct: isoenzyme not identified
# Assay: absorbance at […] nm, Lineweaver-Burk
# Assay type: biochemical, Persea americana
# Settings: phosphate buffer pH 7.0, catechol 2.7-44.5 mM, also printed as 0.1627 g/L, no inhibitor
smiles,measurement,value
Oc1ccccc1O [catechol],Km,1480 µM
